According to patent US8765785B2, “Solifenacin salts” (Crystal Pharma, S.A.U., priority 2010, dated 2014):
Read-outs that look alike come from different tables or passages of the source.

Assays:
Format in all cases: physicochemical
[1] = Stability of the solid salt on standing (colour, UV-HPLC method 2)
Method: HPLC Method 2: To Follow the End Points of the Reactions Performed and the Rest of the Impurities:
(§1) 10 g of solifenacin succinate (example 2) were dissolved in 15 mL of water. The solution was frozen by nitrogen liquid and was placed in the freeze-drying equipment at −60° C. under vacuum.

Solubility in water = test: Solubility in water
Method: Therefore, when the procedure to obtain tablets comprising solifenacin fumarate is carried out by wet granulation, the presence of water is not such an important factor.
However, the low solubility of the solifenacin fumarate avoids this problem. The difference in solubility also makes it easier to obtain solid pharmaceutical compositions of solifenacin fumarate since the drying phase is reduced.

[2] = Stability of tablets of solifenacin salts over 0, 3 and 6 months (Example 9); settings: for DESCRIPTION: film-coated tablets (Example 8); for course of the amount of F1 impurity: 6 month period
Method: To test the stability of solifenacin fumarate, tablets are prepared by wet granulation following the procedure disclosed in US 2008/039516, the contents of which are incorporated in their entirety. A specific example of preparing a tablet containing solifenacin fumarate is given in […] below.
25 parts by weight of Hypromellose (Pharmacoat 603) are dissolved and agitated in 130 parts of purified water with an air motor stirrer (IMA) to prepare a binder solution (at a concentration of 20.0% (w/v)). Then, 50 parts of solifenacin salt, 389 parts of lactose monohydrate (Granulac) and 128 parts of corn starch (C*PharmGel 03406) are mixed together (pre-mix) in a single pot granulator (IMA Zanchetta 3 L capacity).
The binder solution is sprayed over the pre-mix at room temperature with a flow rate of 60 ml/min, impeller speed of 300 rpm and chopper speed of 1500 rpm for wet granulation. After spraying, kneading takes place for 3 min with impeller speed of 300 rpm. After granulation, the granules are dried at a charged temperature of the jacket bowl of 80° C. under vacuum conditions, tilting movement of the bowl of 90° and intermittent speed (120 rpm) of the impeller for 120 seconds.
The granules are dried until a final moisture of 2.5%-1.0% has been reached. 6 parts of magnesium stearate are added to the dried granules for blending with a biconic mixer (SAR Labortecnic). Thereafter, the resulting mixture is compressed with a rotary tabletting machine (KILIAN IMA Pressima) with 6.0 mm punches at a compression pressure sufficient to achieve a hardness of the tablet of more than 50 N and a tablet weight of 60 mg.
The resulting tablets are coated in a non perforated pan (IMA, type HT25). Coating is performed with a solution prepared by dissolving 20 parts of Opadry II pink (Colorcon) in 200 parts of purified water using an air motor stirrer (IMA). Coating is achieved at a charge air temperature of 60-80° C., a pan rotation velocity of 6-13 rpm, and coating fluid feed rate of 16-40 ml/min for a 3.3% ratio of the component to the tablet weight, to obtain the film-coated tablet.
The stability of tablets formulated with solifenacin succinate and solifenacin fumarate, respectively, was tested in a side-by-side comparison. […] For both salts the amount of solifenacin was assayed by HPLC at 0, 3 and 6 months and the amount of “F1 impurity” was also measured. The results are provided in the tables below and are illustrated in FIGS. 9 and 10.

[3] = Conversion of the crystalline salt to the amorphous form (lyophilization, vacuum evaporation; PXRD, DSC); settings: for solid form after lyophilization of an aqueous solution: freeze-drying, -60° C. under vacuum, 15 hours, PXRD and DSC
Method: as §1
10 g of solifenacin fumarate (example 1) were dissolved in 600 ml of water at 60° C. The solution was frozen by nitrogen liquid and was placed in the freeze-drying equipment at −60° C. under vacuum.
5 g of solifenacin fumarate (example 1) was dissolved in 50 ml of methanol (1% of water) and evaporated under vacuum at 50° C.

Compound	DESCRIPTION ([2]; 3 MONTHS)	DESCRIPTION ([2]; 6 MONTHS)	DESCRIPTION ([2]; INITIAL)	ASSAY AMOUNT (amount of solifenacin by HPLC) ([2]; tablets, 3 MONTHS) [%]	CHROMATOGRAPHIC IMPURITY (F1 impurity) ([2]; tablets, 3 MONTHS) [%]	HARDNESS ([2]; tablets, 3 MONTHS) [N]	LOSS ON DRYING ([2]; tablets, 3 MONTHS) [%]	MEDIUM WEIGHT ([2]; tablets, 3 MONTHS) [mg]	ASSAY AMOUNT (amount of solifenacin by HPLC) ([2]; tablets, 6 MONTHS) [%]	CHROMATOGRAPHIC IMPURITY (F1 impurity) ([2]; tablets, 6 MONTHS) [%]	HARDNESS ([2]; tablets, 6 MONTHS) [N]	LOSS ON DRYING ([2]; tablets, 6 MONTHS) [%]	MEDIUM WEIGHT ([2]; tablets, 6 MONTHS) [mg]	course of the amount of F1 impurity ([2]; tablets)	ASSAY AMOUNT (amount of solifenacin by HPLC) ([2]; tablets, INITIAL) [%]	CHROMATOGRAPHIC IMPURITY (F1 impurity) ([2]; tablets, INITIAL) [%]	HARDNESS ([2]; tablets, INITIAL) [N]	LOSS ON DRYING ([2]; tablets, INITIAL) [%]	MEDIUM WEIGHT ([2]; tablets, INITIAL) [mg]	solid form after lyophilization of an aqueous solution [3]	other results
O=C(O[C@H]1CN2CCC1CC2)N1CCc2ccccc2[C@@H]1c1ccccc1 [amorphous form of solifenacin succinate, solifenacin succinate]	–	–	–	–	–	–	–	–	–	–	–	–	–	–	–	–	–	–	–	–	amount of new impurity with relative retention time 0.93 ([1]; left to stand for ten days, HPLC method 2): 0.14%; time until the white solid turned colored ([1]; solid on standing): 2 to 3 days; colour change of the white solid ([1]; three days after freeze-drying): turned brown-colored
O=C(O[C@H]1CN2CCC1CC2)N1CCc2ccccc2[C@@H]1c1ccccc1 [solifenacin succinate]	pink biconvex	pink biconvex	pink biconvex	96.8	<0.06	98	2.43	124.80	94.7	0.91	102	2.39	126.26	increases in the 6 month period	98.7	<0.05	98	2.40	125.57	quite easy to obtain the desired amorphous form	solubility (Solubility in water): 727 mg/mL; colouring / instability on standing [1]: do not have this problem
solifenacin fumarate	pink biconvex	pink biconvex	pink biconvex	99.4	<0.05	73	2.01	124.21	99.6	<0.05	66	2.24	125.51	remains at the constant low level	98.2	<0.05	75	2.05	124.54	crystalline form	solubility in water (Solubility in water): 11.25 mg/mL; stability in tablets, conclusion in words ([2]; tablets, 6 month side-by-side comparison): much more stable than the succinate salt; colouring / instability on standing ([1]; crystalline forms): do not have this problem; solid form after lyophilization of an aqueous solution ([3]; listed as fumarate salt): remains crystalline; solid form after evaporation under vacuum ([3]; methanol (1% of water), evaporated under vacuum at 50° C.): crystalline form
